How the values were obtained:
[1] = Cytotoxicity in MDBK cells (no BVD virus added); conditions: bovine, MDBK cells (Madin-Darby bovine kidney), no virus added
[2] = test system: Bovine viral diarrhea (BVD) virus; assay: Anti-BVDV CPE inhibition assay in MDBK cells; conditions: for EC50: Bovine viral diarrhea virus isolates and strains, MDBK, in Bos taurus, 96 h; for SI (selectivity index, ratio of CC50 and EC50): CC50/EC50, MDBK cells, BVD virus

Question: For Cc1ccc2sc(Cn3ccc4nc(-c5cnn(C)c5C)nc-4c3)nc2c1 [CPD-2, 2-((2-(1,5-dimethyl-1H-pyrazol-4-yl)-5H-imidazo[4,5-c]pyridin-5-yl)methyl)-5-methylbenzo[d]thiazole], which CC50 at 4 days [1] is on record?
Answer: > 50000 nM

Question: And the EC50 [2]?
Answer: 79 ± 4 nM

Question: What about the “SI (selectivity index, ratio of CC50 and EC50)” value [2] of the same compound?
Answer: >633

Question: Which results are given for Cc1c(-c2nc3ccn(Cc4nc5ccccc5s4)cc-3n2)cnn1C [CPD-3, 2-((2-(1,5-dimethyl-1H-pyrazol-4-yl)-5H-imidazo[4,5-c]pyridin-5-yl)methyl)benzo[d]thiazole]?
Answer: CC50 at 4 days [1]: > 50000 nM; EC50 [2]: 78 ± 5 nM; SI (selectivity index, ratio of CC50 and EC50) [2]: >641

Question: With Cc1c(-c2nc3ccn(Cc4nc5cc(Cl)ccc5s4)cc-3n2)cnn1C [CPD-4, 5-chloro-2-((2-(1,5-dimethyl-1H-pyrazol-4-yl)-5H-imidazo[4,5-c]pyridin-5-yl)methyl)benzo[d]thiazole] as the compound, how does the CC50 at 4 days [1] read?
Answer: > 50000 nM

Question: What about the EC50 [2] of the same compound?
Answer: 84 ± 3 nM

Question: What about the “SI (selectivity index, ratio of CC50 and EC50)” value [2] of the same compound?
Answer: >595

Question: For Cc1c(-c2nc3ccn(Cc4nc5ccc(Cl)cc5s4)cc-3n2)cnn1C [CPD-5, 6-chloro-2-((2-(1,5-dimethyl-1H-pyrazol-4-yl)-5H-imidazo[4,5-c]pyridin-5-yl)methyl)benzo[d]thiazole], which CC50 at 4 days [1] is on record?
Answer: > 50000 nM

Question: And the EC50 [2]?
Answer: 27 ± 27 nM

Question: And the “SI (selectivity index, ratio of CC50 and EC50)” value [2]?
Answer: >1852

Question: Which CC50 at 4 days [1] does the source give for Cc1c(-c2nc3ccn(Cc4nc5ccc6ccccc6c5s4)cc-3n2)cnn1C [CPD-6, 2-((2-(1,5-dimethyl-1H-pyrazol-4-yl)-5H-imidazo[4,5-c]pyridin-5-yl)methyl)naphtho[2,1-d]thiazole] here?
Answer: > 50000 nM

Question: And the EC50 [2]?
Answer: 14 ± 1 nM

Question: And the “SI (selectivity index, ratio of CC50 and EC50)” value [2]?
Answer: >3571

Question: Which CC50 at 4 days [1] does the source give for Cc1ccc2oc(Cn3ccc4nc(-c5cnn(C)c5C)nc-4c3)nc2c1 [CPD-8, 2-((2-(1,5-dimethyl-1H-pyrazol-4-yl)-5H-imidazo[4,5-c]pyridin-5-yl)methyl)-5-methylbenzo[d]oxazole] here?
Answer: > 50000 nM

Question: And the EC50 [2]?
Answer: 79 ± 4 nM

Question: What about the “SI (selectivity index, ratio of CC50 and EC50)” value [2] of the same compound?
Answer: >633

Question: Which CC50 at 4 days [1] does the source give for Cc1c(-c2nc3ccn(Cn4nnc5ccccc54)cc-3n2)cnn1C [CPD-9, 1-((2-(1,5-dimethyl-1H-pyrazol-4-yl)-5H-imidazo[4,5-c]pyridin-5-yl)methyl)-1H-benzo[d][1,2,3]triazole] here?
Answer: 22000 nM

Question: What about the EC50 [2] of the same compound?
Answer: 346 ± 86 nM

Question: And the “SI (selectivity index, ratio of CC50 and EC50)” value [2]?
Answer: 64

Question: Which results are given for Cc1ccc2sc(Cn3ccc4nc(-c5cn(C)nc5C)nc-4c3)nc2c1 [CPD-11, 2-((2-(1,3-dimethyl-1H-pyrazol-4-yl)-5H-imidazo[4,5-c]pyridin-5-yl)methyl)-5-methylbenzo[d]thiazole]?
Answer: CC50 at 4 days [1]: > 50000 nM; EC50 [2]: 300 ± 100 nM; SI (selectivity index, ratio of CC50 and EC50) [2]: >167

Question: With Cc1ccc2oc(Cn3ccc4nc(-c5cn(C)nc5C)nc-4c3)nc2c1 [CPD-12, 2-((2-(1,3-dimethyl-1H-pyrazol-4-yl)-5H-imidazo[4,5-c]pyridin-5-yl)methyl)-5-methylbenzo[d]oxazole] as the compound, how does the CC50 at 4 days [1] read?
Answer: > 50000 nM

Question: And the EC50 [2]?
Answer: 256 ± 111 nM

Question: What about the “SI (selectivity index, ratio of CC50 and EC50)” value [2] of the same compound?
Answer: >195

Question: Which CC50 at 4 days [1] does the source give for Cc1nn(C)c(C)c1-c1nc2ccn(Cc3cc(-c4cc(F)ccc4F)no3)cc-2n1 [CPD-13, 3-(2,5-difluorophenyl)-5-((2-(1,3,5-trimethyl-1H-pyrazol-4-yl)-5H-imidazo[4,5-c]pyridin-5-yl)methyl)isoxazole] here?
Answer: > 50000 nM

Question: What about the EC50 [2] of the same compound?
Answer: 95 ± 22 nM

Question: What about the “SI (selectivity index, ratio of CC50 and EC50)” value [2] of the same compound?
Answer: >526

Question: For COc1ncccc1-c1nc2ccn(Cc3nc4ccc(C)cc4s3)cc-2n1 [CPD-14, 2-((2-(2-methoxypyridin-3-yl)-5H-imidazo[4,5-c]pyridin-5-yl)methyl)-6-methylbenzo[d]thiazole], which CC50 at 4 days [1] is on record?
Answer: > 50000 nM

Question: And the EC50 [2]?
Answer: 20 ± 4 nM

Question: And the “SI (selectivity index, ratio of CC50 and EC50)” value [2]?
Answer: >2500

Question: Which results are given for COc1ncccc1-c1nc2ccn(Cc3nc4cc(C)ccc4s3)cc-2n1 [CPD-15, 2-((2-(2-methoxypyridin-3-yl)-5H-imidazo[4,5-c]pyridin-5-yl)methyl)-5-methylbenzo[d]thiazole]?
Answer: CC50 at 4 days [1]: > 50000 nM; EC50 [2]: 86 ± 4 nM; SI (selectivity index, ratio of CC50 and EC50) [2]: >581

Question: Which CC50 at 4 days [1] does the source give for COc1ncccc1-c1nc2ccn(Cc3nc4cc(C)ccc4o3)cc-2n1 [CPD-16, 2-((2-(2-methoxypyridin-3-yl)-5H-imidazo[4,5-c]pyridin-5-yl)methyl)-5-methylbenzo[d]oxazole] here?
Answer: > 50000 nM

Question: And the EC50 [2]?
Answer: 117 nM

Question: And the “SI (selectivity index, ratio of CC50 and EC50)” value [2]?
Answer: >427

Question: With COc1ncccc1-c1nc2ccn(Cc3cc(-c4cc(F)ccc4F)no3)cc-2n1 [CPD-17, 3-(2,5-difluorophenyl)-5-((2-(2-methoxypyridin-3-yl)-5H-imidazo[4,5-c]pyridin-5-yl)methyl)isoxazole] as the compound, how does the CC50 at 4 days [1] read?
Answer: 100000 nM

Question: What about the EC50 [2] of the same compound?
Answer: 72 ± 2 nM

Question: What about the “SI (selectivity index, ratio of CC50 and EC50)” value [2] of the same compound?
Answer: 1389

Question: What does the source list for COc1ccccc1-c1nc2ccn(Cc3nc4ccc(C)cc4s3)cc-2n1 [CPD-18, 2-((2-(2-methoxyphenyl)-5H-imidazo[4,5-c]pyridin-5-yl)methyl)-6-methylbenzo[d]thiazole]?
Answer: CC50 at 4 days [1]: 20000 nM; EC50 [2]: 2 ± 1 nM; SI (selectivity index, ratio of CC50 and EC50) [2]: 10000

Question: What does the source list for COc1ccccc1-c1nc2ccn(Cc3cc(-c4cc(F)ccc4F)no3)cc-2n1 [CPD-19, 3-(2,5-difluorophenyl)-5-((2-(2-methoxyphenyl)-5H-imidazo[4,5-c]pyridin-5-yl)methyl)isoxazole]?
Answer: CC50 at 4 days [1]: 19000 nM; EC50 [2]: 4 ± 1 nM; SI (selectivity index, ratio of CC50 and EC50) [2]: 4750

Question: With COc1ccccc1-c1nc2ccn(Cn3nnc4ccccc43)cc-2n1 [CPD-20, 1-((2-(2-methoxyphenyl)-5H-imidazo[4,5-c]pyridin-5-yl)methyl)-1H-benzo[d][1,2,3]triazole] as the compound, how does the CC50 at 4 days [1] read?
Answer: > 50000 nM

Question: What about the EC50 [2] of the same compound?
Answer: 87 ± 3 nM

Question: What about the “SI (selectivity index, ratio of CC50 and EC50)” value [2] of the same compound?
Answer: >575

Question: Which CC50 at 4 days [1] does the source give for Cc1ccc2nc(Cn3ccc4nc(-c5ccccc5OC(F)F)nc-4c3)sc2c1 [CPD-21, 2-((2-(2-(difluoromethoxy)phenyl)-5H-imidazo[4,5-c]pyridin-5-yl)methyl)-6-methylbenzo[d]thiazole] here?
Answer: 31000 nM

Question: What about the EC50 [2] of the same compound?
Answer: 409 nM

Question: What about the “SI (selectivity index, ratio of CC50 and EC50)” value [2] of the same compound?
Answer: 76

Question: For Cc1ccc2nc(Cn3ccc4nc(-c5ccccc5F)nc-4c3)sc2c1 [CPD-22, 2-((2-(2-fluorophenyl)-5H-imidazo[4,5-c]pyridin-5-yl)methyl)-6-methylbenzo[d]thiazole], which CC50 at 4 days [1] is on record?
Answer: > 100000 nM

Question: What about the EC50 [2] of the same compound?
Answer: 19 ± 5 nM

Question: What about the “SI (selectivity index, ratio of CC50 and EC50)” value [2] of the same compound?
Answer: >5263

Question: For Cc1ccc2sc(Cn3ccc4nc(-c5ccccc5F)nc-4c3)nc2c1 [CPD-23, 2-((2-(2-fluorophenyl)-5H-imidazo[4,5-c]pyridin-5-yl)methyl)-5-methylbenzo[d]thiazole], which CC50 at 4 days [1] is on record?
Answer: > 50000 nM

Question: What about the EC50 [2] of the same compound?
Answer: 84 ± 29 nM

Question: What about the “SI (selectivity index, ratio of CC50 and EC50)” value [2] of the same compound?
Answer: >595

Question: For Fc1ccccc1-c1nc2ccn(Cc3nc4ccccc4s3)cc-2n1 [CPD-24, 2-((2-(2-fluorophenyl)-5H-imidazo[4,5-c]pyridin-5-yl)methyl)benzo[d]thiazole], which CC50 at 4 days [1] is on record?
Answer: > 50000 nM

Question: What about the EC50 [2] of the same compound?
Answer: 299 ± 91 nM

Question: And the “SI (selectivity index, ratio of CC50 and EC50)” value [2]?
Answer: >167

Question: Which CC50 at 4 days [1] does the source give for Fc1ccccc1-c1nc2ccn(Cc3nc4ccc(Cl)cc4s3)cc-2n1 [CPD-25, 6-chloro-2-((2-(2-fluorophenyl)-5H-imidazo[4,5-c]pyridin-5-yl)methyl)benzo[d]thiazole] here?
Answer: > 50000 nM

Question: What about the EC50 [2] of the same compound?
Answer: 78 ± 4 nM

Question: What about the “SI (selectivity index, ratio of CC50 and EC50)” value [2] of the same compound?
Answer: >641

Question: Which CC50 at 4 days [1] does the source give for Fc1ccccc1-c1nc2ccn(Cc3nc4cc(Cl)ccc4s3)cc-2n1 [CPD-26, 5-chloro-2-((2-(2-fluorophenyl)-5H-imidazo[4,5-c]pyridin-5-yl)methyl)benzo[d]thiazole] here?
Answer: > 50000 nM

Question: What about the EC50 [2] of the same compound?
Answer: 96 ± 6 nM

Question: And the “SI (selectivity index, ratio of CC50 and EC50)” value [2]?
Answer: >521
